The numbers were not newly measured in US20170340580A1, “BIOADHESIVE PATCH” (priority 2008, published 2017), which cites them from elsewhere.

For this data set the following is noted: 8 mg ml^−1; temperatures up to 37° C.

For the compound `NCC(=O)CCC(=O)O` [ALA, 5-aminolevulinic acid], the “ALA stability in 0.1 M borate buffer pH 5” value is listed as “up to 6 hours”.
